Biological target: μ-opioid receptor (MOR) (Homo sapiens, UniProt P35372)
Type: binding

Chain of μ-opioid receptor (MOR) (P35372 whole entry, species assumed): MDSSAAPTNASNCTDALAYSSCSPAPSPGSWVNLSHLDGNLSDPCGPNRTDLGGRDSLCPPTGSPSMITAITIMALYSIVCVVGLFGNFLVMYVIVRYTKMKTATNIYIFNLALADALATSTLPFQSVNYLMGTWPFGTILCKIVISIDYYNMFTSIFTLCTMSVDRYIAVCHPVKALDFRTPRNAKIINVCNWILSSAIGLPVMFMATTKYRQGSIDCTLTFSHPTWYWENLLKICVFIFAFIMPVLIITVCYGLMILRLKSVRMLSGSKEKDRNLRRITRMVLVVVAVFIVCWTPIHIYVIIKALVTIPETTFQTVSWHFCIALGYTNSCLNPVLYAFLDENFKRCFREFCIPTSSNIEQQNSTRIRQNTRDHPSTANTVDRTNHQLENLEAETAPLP

Question: With `COC(=O)[C@@H]1C[C@H](OC(=O)/C=C\C(=O)O)C(=O)[C@H]2[C@@]1(C)CC[C@H]1C(=O)O[C@H](c3ccoc3)C[C@]21C` [Compound 13] as the molecule, how does the “Affinities Ki± SD MOR” value read?
Answer: no affinity

Biological target: δ-opioid receptor (DOR) (Homo sapiens, UniProt P41143)
Type: binding

Chain of δ-opioid receptor (DOR) (P41143 whole entry): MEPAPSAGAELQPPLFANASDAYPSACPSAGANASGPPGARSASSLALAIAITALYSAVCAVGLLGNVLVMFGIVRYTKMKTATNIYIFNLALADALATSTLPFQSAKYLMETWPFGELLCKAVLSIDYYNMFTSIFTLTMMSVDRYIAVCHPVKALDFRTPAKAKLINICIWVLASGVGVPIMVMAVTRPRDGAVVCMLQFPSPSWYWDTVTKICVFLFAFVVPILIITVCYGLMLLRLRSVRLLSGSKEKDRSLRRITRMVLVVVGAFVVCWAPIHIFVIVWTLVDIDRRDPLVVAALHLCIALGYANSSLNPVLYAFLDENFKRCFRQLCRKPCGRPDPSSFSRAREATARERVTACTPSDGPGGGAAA

Question: `COC(=O)[C@@H]1C[C@H](OC(=O)/C=C\C(=O)O)C(=O)[C@H]2[C@@]1(C)CC[C@H]1C(=O)O[C@H](c3ccoc3)C[C@]21C` [Compound 13] was tested. Which “Affinities Ki± SD DOR” value did it give?
Answer: no affinity

Biological target: κ-opioid receptor (KOR) (Homo sapiens, UniProt P41145)
Type: binding

Chain of κ-opioid receptor (KOR) (P41145 whole entry): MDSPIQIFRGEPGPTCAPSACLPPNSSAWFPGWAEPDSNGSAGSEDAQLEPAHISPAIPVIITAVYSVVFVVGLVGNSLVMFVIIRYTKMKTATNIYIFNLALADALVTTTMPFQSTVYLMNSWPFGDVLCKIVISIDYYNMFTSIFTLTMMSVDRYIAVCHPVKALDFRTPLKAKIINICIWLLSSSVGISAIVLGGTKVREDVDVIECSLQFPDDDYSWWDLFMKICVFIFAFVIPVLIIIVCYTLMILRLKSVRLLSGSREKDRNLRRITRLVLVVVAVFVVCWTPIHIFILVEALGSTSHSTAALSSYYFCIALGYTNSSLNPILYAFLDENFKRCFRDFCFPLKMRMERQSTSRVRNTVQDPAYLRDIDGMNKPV

Question: For `COC(=O)CCC(=O)O[C@H]1C[C@@H](C(=O)OC)[C@]2(C)CC[C@H]3C(=O)O[C@H](c4ccoc4)C[C@]3(C)[C@H]2C1=O` [Compound 7], which “Fold reduction of KOR affinity compared to 1” value (“Fold reduction of KOR affinity” for short) is on record?
Answer: 6 fold

Question: And the “Selectivity DOR/KOR” value?
Answer: >277

Question: And the “Selectivity MOR/KOR” value?
Answer: >277

Question: For `COC(=O)[C@@H]1C[C@H](OC(=O)CC(=O)OC(C)(C)C)C(=O)[C@H]2[C@@]1(C)CC[C@H]1C(=O)O[C@H](c3ccoc3)C[C@]21C` [Compound 6], which “Fold reduction of KOR affinity” value is on record?
Answer: 24 fold

Question: And the “Selectivity DOR/KOR” value?
Answer: >67

Question: And the “Selectivity MOR/KOR” value?
Answer: >67

Question: For `COC(=O)/C=C/C(=O)O[C@H]1C[C@@H](C(=O)OC)[C@]2(C)CC[C@H]3C(=O)O[C@H](c4ccoc4)C[C@]3(C)[C@H]2C1=O` [Compound 14], which “Fold reduction of KOR affinity” value is on record?
Answer: 6 fold

Question: And the “Selectivity DOR/KOR” value?
Answer: >256

Question: Which “Selectivity DOR/KOR” value does the source give for `COC(=O)[C@@H]1C[C@H](OC(=O)CCCC(=O)O)C(=O)[C@H]2[C@@]1(C)CC[C@H]1C(=O)O[C@H](c3ccoc3)C[C@]21C` [Compound 12] here?
Answer: >38

Question: With `COC(=O)CC(=O)O[C@H]1C[C@@H](C(=O)OC)[C@]2(C)CC[C@H]3C(=O)O[C@H](c4ccoc4)C[C@]3(C)[C@H]2C1=O` [Compound 4] as the molecule, how does the “Selectivity MOR/KOR” value read?
Answer: >5000

Question: Which results are given for `COC(=O)CCCC(=O)O[C@H]1C[C@@H](C(=O)OC)[C@]2(C)CC[C@H]3C(=O)O[C@H](c4ccoc4)C[C@]3(C)[C@H]2C1=O` [Compound 9]?
Answer: Fold reduction of KOR affinity compared to 1: 49 fold; Selectivity DOR/KOR: >33

Question: How did the “Fold reduction of KOR affinity” value turn out when `CCOC(=O)CC(=O)O[C@H]1C[C@@H](C(=O)OC)[C@]2(C)CC[C@H]3C(=O)O[C@H](c4ccoc4)C[C@]3(C)[C@H]2C1=O` [Compound 5] was run?
Answer: 3 fold

Question: And the “Selectivity DOR/KOR” value?
Answer: >476

Question: And the “Selectivity MOR/KOR” value?
Answer: >476

Question: For `COC(=O)[C@@H]1C[C@H](OC(=O)/C=C\C(=O)O)C(=O)[C@H]2[C@@]1(C)CC[C@H]1C(=O)O[C@H](c3ccoc3)C[C@]21C` [Compound 13], which “Affinities Ki± SD KOR” value is on record?
Answer: no affinity

Question: `COC(=O)CCCCC(=O)O[C@H]1C[C@@H](C(=O)OC)[C@]2(C)CC[C@H]3C(=O)O[C@H](c4ccoc4)C[C@]3(C)[C@H]2C1=O` [Compound 10] was tested. Which “Selectivity DOR/KOR” value did it give?
Answer: >17

Question: What about the “Selectivity MOR/KOR” value of the same molecule?
Answer: >17

Question: What does the source list for `CCOC(=O)CCC(=O)O[C@H]1C[C@@H](C(=O)OC)[C@]2(C)CC[C@H]3C(=O)O[C@H](c4ccoc4)C[C@]3(C)[C@H]2C1=O` [Compound 8]?
Answer: Fold reduction of KOR affinity compared to 1: 70 fold; Selectivity DOR/KOR: >23; Selectivity MOR/KOR: >23

Question: Which “Selectivity DOR/KOR” value does the source give for `COC(=O)[C@@H]1C[C@H](OC(=O)c2ccccc2C(=O)O)C(=O)[C@H]2[C@@]1(C)CC[C@H]1C(=O)O[C@H](c3ccoc3)C[C@]21C` [Compound 16] here?
Answer: >4

Question: And the “Selectivity MOR/KOR” value?
Answer: >4

Question: With `CCOC(=O)/C=C/C(=O)O[C@H]1C[C@@H](C(=O)OC)[C@]2(C)CC[C@H]3C(=O)O[C@H](c4ccoc4)C[C@]3(C)[C@H]2C1=O` [Compound 15] as the molecule, how does the “Selectivity DOR/KOR” value read?
Answer: >23
